# Where a SMILES comes first, the peptide text is derived from it. Bridges are numbered along the chain shown (N, C = ends). [ ]: non-standard residue; d: D form. Trp(6-F) = N[C@@H](Cc1c[nH]c2cc(F)ccc12)C(=O)O; dPhe(4-F) = N[C@H](Cc1ccc(F)cc1)C(=O)O; dAgb = N=C(N)NCC[C@@H](N)C(=O)O; Ac4c(3-oxa) = NC1(C(=O)O)COC1; Pen = CC(C)(S)[C@H](N)C(=O)O
# Experiments:
# MC1R = MC1R (Homo sapiens, UniProt Q01726); assay: cAMP assay (human receptors), DiscoverX HitHunter, MC1R
# Experimental: The cAMP Assay (Human Receptors)
# The in vitro functional activity of peptides was determined via DiscoverX Hit Hunter® cAMP assays, adhering to manufacturer-specified protocols. Assays involved the use of HEK293 cells, each of which were engineered to express MC1R or MC4R receptors.
# In accordance with standard procedures, cAMP Hunter cell lines, extracted from freezer stocks, were cultured in 20 μL volumes in white-walled, 384-well microplates. These cells were incubated at 37° C. for an appropriate duration before commencing testing procedures. The identification of cAMP modulation was determined using the DiscoverX HitHunter assay.
# For gauging the response from agonists, cells were incubated with a specific peptide, after which the media was aspirated and replaced with a solution of 10 μL of HBSS/10 mM Hepes, known as Assay Buffer. A subsequent dilution of sample stocks yielded a 4× sample in the assay buffer, which was then added to the cells in equal quantities, followed by a 30-minute incubation at 37° C. The ensuing concentration of DMSO, the vehicle, was maintained at 1%. […]
# Compound activity was evaluated using a Chemical and Biological Information System software (CBIS) data analysis suite. The results described were calculated on an average of the two points per concentration generated by the assay described above. […]
# MC4R vs MC1R = assay: Selectivity calculation MC4R vs MC1R (division of cAMP EC50 values); type: cell-based, human
# Experimental: Peptides, including comparator molecules were tested by assays listed below. Selectivity between receptors was assessed in part using cAMP assays, which test the activity of peptides through the Gs pathway.
# Selectivity between any two receptors was calculated by a division of the EC50 values between the two receptors, for each individual peptide.
# MC4R = target: T1, MC4R (Homo sapiens, UniProt P32245); assay: Bias calculation MC4R B-arrestin v MC4R cAMP; type: cell-based
# T1 construct: host or cells: HEK293 (cAMP Hunter and PathHunter MC4R cell lines)
# T1 sequence (P32245 whole entry): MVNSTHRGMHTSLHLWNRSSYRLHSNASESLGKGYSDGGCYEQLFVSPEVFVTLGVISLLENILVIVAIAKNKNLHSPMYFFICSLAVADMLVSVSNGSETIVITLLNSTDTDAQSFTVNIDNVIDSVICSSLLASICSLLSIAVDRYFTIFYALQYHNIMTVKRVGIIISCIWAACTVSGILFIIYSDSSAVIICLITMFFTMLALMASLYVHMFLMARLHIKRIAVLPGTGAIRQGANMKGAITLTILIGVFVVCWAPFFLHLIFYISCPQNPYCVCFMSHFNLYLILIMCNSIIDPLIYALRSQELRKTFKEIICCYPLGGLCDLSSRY
# From the text: When comparing the selectivity of MC4R v MC1R, larger values indicate selectivity towards MC4R. When comparing the bias of MC4R B-arrestin v MC4R cAMP, larger values indicate bias towards B-arrestin.
# MC1R, sequence (Q01726 whole entry): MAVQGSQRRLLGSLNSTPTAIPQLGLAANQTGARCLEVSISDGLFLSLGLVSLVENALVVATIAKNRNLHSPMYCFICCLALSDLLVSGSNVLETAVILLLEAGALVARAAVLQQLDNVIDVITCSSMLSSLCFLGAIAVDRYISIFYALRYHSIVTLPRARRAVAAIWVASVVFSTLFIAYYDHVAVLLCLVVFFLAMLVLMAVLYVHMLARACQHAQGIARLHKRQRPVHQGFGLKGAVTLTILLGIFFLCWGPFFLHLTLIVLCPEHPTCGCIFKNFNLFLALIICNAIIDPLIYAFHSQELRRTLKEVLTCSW
SMILES,EC50 (MC1R) [nM],"Selectivity: MC4R v MC1R (MC4R vs MC1R; Compounds with Gln at X4, larger values indicate selectivity towards MC4R)","Selectivity: MC4R v MC1R (MC4R vs MC1R; Table 6 (A), larger values indicate selectivity towards MC4R)","Selectivity: MC4R v MC1R (MC4R vs MC1R; Table 6 (B), larger values indicate selectivity towards MC4R)","Selectivity: MC4R v MC1R (MC4R vs MC1R; Table 7, Aib(O-cyclic) at X3, larger values indicate selectivity towards MC4R)","Selectivity: MC4R v MC1R (MC4R vs MC1R; Table 14, Aib(O-cyclic) at X3, larger values indicate selectivity towards MC4R)","Selectivity: MC4R v MC1R (MC4R vs MC1R; Table 20, Gln at X4)","Selectivity: MC4R v MC1R (MC4R vs MC1R; calculated from cAMP functional screening, larger values indicate selectivity towards MC4R)","Bias: MC4R B-arrestin v MC4R cAMP (MC4R; Compounds with Gln at X4, larger values indicate bias towards B-arrestin)","Bias: MC4R B-arrestin v MC4R cAMP (MC4R; Table 6 (B), larger values indicate bias towards B-arrestin)","Bias: MC4R B-arrestin v MC4R cAMP (MC4R; Table 7, Aib(O-cyclic) at X3, larger values indicate bias towards B-arrestin)","Bias: MC4R B-arrestin v MC4R cAMP (MC4R; Table 20, Gln at X4)"
CCCC[C@H](NC(C)=O)C(=O)N[C@H]1CC(=O)NCCCC[C@@H](C(=O)O)NC(=O)[C@H](Cc2c[nH]c3ccccc23)NC(=O)[C@H](CCCN=C(N)N)NC(=O)[C@@H](Cc2ccccc2)NC(=O)[C@H](Cc2cnc[nH]2)NC1=O [Bremelanotide],0.17,–,–,–,–,–,–,–,–,–,–,–
"CC(=O)N[C@H](CCNC(=N)N)C(=O)N[C@H]1CSSC(C)(C)[C@@H](C(N)=O)NC(=O)[C@H](Cc2c[nH]c3cc(F)ccc23)NC(=O)[C@H](CCCNC(=N)N)NC(=O)[C@@H](Cc2ccc(F)cc2)NC(=O)[C@H](CCC(N)=O)NC(=O)C2(COC2)NC1=O [Molecule 1158, (7R,12R,15S,18S,21R,24S)-7-((R)-2-acetamido-4-guanidinobutanamido)-24-(3-amino-3-oxopropyl)-15-((6-fluoro-1H-indol-3-yl)methyl)-21-(4-fluorobenzyl)-18-(3-guanidinopropyl)-11,11-dimethyl-6,14,17,20,23,26-hexaoxo-2-oxa-9,10-dithia-5,13,16,19,22,25-hexaazaspiro[3.22]hexacosane-12-carboxamide] (Ac-[dAgb]C[Ac4c(3-oxa)]Q[dPhe(4-F)]R[Trp(6-F)][Pen]-NH2; disulfide 2-8)",–,*** (*** denotes MC4R vs MC1R selectivity of about >7.40),*** (*** denotes MC4R vs MC1R selectivity of about >7.40),*** (*** denotes MC4R vs MC1R selectivity of about >7.40),*** (*** denotes MC4R vs MC1R selectivity of about >7.40),*** (*** denotes MC4R vs MC1R selectivity of about >7.40),*** (*** denotes MC4R vs MC1R selectivity of about >7.40),*** (*** denotes MC4R vs MC1R selectivity of about >7.40),+ (+ denotes MC4R B-arrestin v MC4R cAMP bias having a range of >0.00 to ≤2.00),+ (+ denotes MC4R B-arrestin v MC4R cAMP bias having a range of >0.00 to ≤2.00),+ (+ denotes MC4R B-arrestin v MC4R cAMP bias having a range of >0.00 to ≤2.00),+ (+ denotes MC4R B-arrestin v MC4R cAMP bias having a range of >0.00 to ≤2.00)

# — US20250361273A1, “METHODS AND COMPOSITIONS” (priority 2024, published 2025)
